From patent publication US5948802A, “Benzoate derivatives of diaryl 1,3,4-oxadiazolone” (Bristol-Myers Squibb Company, priority 1999, dated 1999)
Counter-ions that a name gives are not always drawn.

How the values were obtained:
[1] = Rapid screen of prodrug hydrolysis and drug release in plasma; assay type: in vitro ADME; settings: 10 ug/mL in fresh rat plasma at 37° C.; analysis 5 minutes after incubation; stock 1 mg/mL in PEG-400
Protocol: A rapid screen to determine the ability of prodrugs to hydrolyze and release the drug (compound of Preparation 1) is conducted as follows. A 1 mg/mL stock solution of the prodrug is prepared in distilled water or acetonitrile or PEG-400. Plasma from freshly collected rat or human blood is used in this assay. To 1 mL of plasma at 37° C. was added 10 μL of stock solution of prodrug and mixed gently. Immediately after the mixing, 100 μL of plasma was removed and quenched with 300 μL of acetontrile (Zero time sample). Samples were also obtained at 30 minutes and quenched immediately. The quenched samples were centrifuged to obtain a clear supernatant for analysis. The stock solution, T=0 and T=30 samples were analyzed by a HPLC assay that separates the drug from the prodrug. Based on the relative peak areas of prodrug and drug in these samples, different prodrugs are characterized as fast, moderate and slow release agents. For example, in this model, the compound of Example 1 was dissolved in PEG-400 at a concentration of 1 mg/mL and incubated at 10 ug/mL in fresh rat plasma at 37° C.

[2] = test system: cloned mammalian (mSlo or hSlo) BK-mediated outward current; experiment: Increase of cloned BK-mediated outward current in Xenopus oocytes, two-electrode voltage clamp; assay type: cell-based; settings: 1 μM; at least 5 oocytes; mSlo or hSlo expressed in Xenopus oocytes
Protocol: (§1) The ability of the compound of Preparation 1 to open BK channels and increase whole-cell outward (K^+) BK-mediated currents was assessed under voltage-clamp conditions by determining their ability to increase cloned mammalian (mSlo or hSlo) BK-mediated outward current heterologously expressed in Xenopus oocytes [Butler, A., et al., Science, 261, pp. 221-224 (1993); and Dworetzky, S. I., et al., Mol. Brain Res., 27, pp.189-193 (1994)]. The two BK constructs employed represent nearly structurally identical homologous proteins, and have proven to be pharmacologically identical in our tests. To isolate BK current from native (background, non-BK) current, the specific and potent BK channel-blocking toxin iberiotoxin (IBTX) [Galvez, A., et al., J. Biol. Chem, 265, pp. 11083-11090 (1990)] was employed at a supramaximal concentration (50 nM). The relative contribution of BK channels current to total outward current was determined by subtraction of the current remaining in the presence of IBTX (non-BK current) from the current profiles obtained in all other experimental conditions (control, drug, and wash). […]

[3] = test system: non-BK native currents in the oocytes; experiment: Effect on non-BK (IBTX-insensitive) native currents in oocytes; assay type: cell-based, Xenopus; settings: at the tested concentration
Protocol: as §1

focal cerebral ischemia = experiment: Focal stroke model: permanent MCA and CCA occlusion, cortical infarct volume; assay type: in vivo, Wistar rat; settings: 10 μg/kg i.v. single bolus two hours after MCA occlusion; measured 24 hours after MCAO; vs vehicle-treated (water) control
Protocol: To determine the ability of the compounds of the present invention to reduce cell loss resulting from neuronal ischemia, a standard focal cerebral ischemia is induced by permanent occlusion of the left middle cerebral artery (MCA) and common carotid artery (CCA) with one hour occlusion of the right CCA in the Wistar rat. The surgeries are performed using the sub-temporal approach of A. Tamura, et al., J. Cereb. Blood Flow Metab., 1, pp. 53-60, (1981) and its modifications [K. Osborne, et al., J. Neurol Neurosurg. Psychiatry, 50, pp. 402-410 (1987) and S. Menzies,et al., Neurosurgery, 31, pp. 100-107, (1992).]
The compound of Preparation 1 was evaluated in the focal stroke model involving permanent occlusion of the left MCA (MCAO) and CCA (CCAO) and temporary occlusion of the right CCA in the Wistar rat. This procedure results in a reliably large neocortical infarct volume that is measured by means of vital dye exclusion in serial slices through the brain 24 hours after MCAO. In the present test, compounds were administered using an i.v. or i.p. route of administration two hours after occlusion.

Compound	conversion of prodrug to the compound of Preparation 1 [1]	BK current, % of control of IBTX-sensitive current [2]	effect on non-BK native currents in the oocytes [3]	reduction of cortical infarct volume (focal cerebral ischemia)
CCN(CC)Cc1ccc(C(=O)Oc2ccc(Cl)cc2Cn2nc(-c3ccc(C(F)(F)F)cc3)oc2=O)cc1 [Example 1, 4-Chloro-2-[[5-[4-(trifluoromethyl)phenyl]-2,3-dihydro-2-oxo-1,3,4-oxadiazol-3-yl]methyl]phenyl 4-[(diethylamino)-methylbenzoate hydrochloride]	indicated conversion of the compound of Example 1 to the compound of Preparation 1	–	–	–
O=c1oc(-c2ccc(C(F)(F)F)cc2)nn1Cc1cc(Cl)ccc1O [Preparation 1, 3-[(5-Chloro-2-hydroxyphenyl)methyl]-5-[4-(trifluoromethyl)phenyl]-1,3,4-oxadiazol-2(3H)-one]	–	126%	did not effect non-BK native currents	about 18%
